Here are results for 3 molecules from patent publication US20050130909A1 (priority 2002, published 2005).

For data set [1], the system named is N,N′-diacetyl-Lys-D-Ala-D-Ala. Put plainly: ITC of binding to tri-peptide cell-wall analog, with and without HSA. To be noted: control ITC experiments with HSA. Here is the method: Peptide concentrations were determined by weight.
Trans. R. Soc. Lond. Ser. A-Math. Phys. Eng. […] Wiley, (1998) p 103-111; and Cooper, A., Curr. Opin. Chem. Biol. (1999) 3, 557-563.
Background: ITC needs no label: the signal is the heat of the interaction.

The next data set concerns dipeptide (D-Ala-D-Ala). As to the kind of experiment: ITC, preliminary experiments. The conditions noted are these: absence of serum proteins. It counts as binding.
The next data set deals with Lys-D-Ala-D-Lactate. As to the kind of experiment: ITC, preliminary experiments. It counts as binding. The conditions noted are these: absence of serum proteins.
The next data set concerns the target human albumin (Homo sapiens, UniProt P02768). Put plainly: Protein binding by isothermal titration microcalorimetry (ITC). The conditions noted are these: for Calculated percent Binding to Human albumin: albumin 6×10^−4 M assumed.
For a further data set, the system named is human α-glycoprotein. Put plainly: Protein binding by ITC. The conditions noted are these: protein […]10^−5 M assumed.
Data set [2] is described as follows: ESI-MS analysis of multimers in solution. The conditions noted are these: dalbavancin 0.1 mg/ml in 8:2 water:isopropanol; teicoplanin 50 and 100 μg/mL in water.
Description: Experiments were performed using an Applied Biosystem API III+ mass spectrometer equipped with a TurboIonSpray source, a Triple Quadrupole analyzer, operating in positive ion mode.
The mass spectra were obtained in electrospray positive mode on a Finnigan LCQ^Deca ion trap instrument previously tuned and calibrated in electrospray mode using Ultramark 1621, caffeine and MRFA (L-metionyl-arginyl-phenilalanyl-arginine).
The nature of another data set: Rat mass balance study. It counts as in vivo, Sprague-Dawley rats. Here is the method:
Mass balance studies were conducted to determine the excretion pattern of dalbavancin following a single intravenous (IV) infusion of dalbavancin in male rats.
Water and methanol cage washes were also collected.

Chain of human albumin (P02768 25-609): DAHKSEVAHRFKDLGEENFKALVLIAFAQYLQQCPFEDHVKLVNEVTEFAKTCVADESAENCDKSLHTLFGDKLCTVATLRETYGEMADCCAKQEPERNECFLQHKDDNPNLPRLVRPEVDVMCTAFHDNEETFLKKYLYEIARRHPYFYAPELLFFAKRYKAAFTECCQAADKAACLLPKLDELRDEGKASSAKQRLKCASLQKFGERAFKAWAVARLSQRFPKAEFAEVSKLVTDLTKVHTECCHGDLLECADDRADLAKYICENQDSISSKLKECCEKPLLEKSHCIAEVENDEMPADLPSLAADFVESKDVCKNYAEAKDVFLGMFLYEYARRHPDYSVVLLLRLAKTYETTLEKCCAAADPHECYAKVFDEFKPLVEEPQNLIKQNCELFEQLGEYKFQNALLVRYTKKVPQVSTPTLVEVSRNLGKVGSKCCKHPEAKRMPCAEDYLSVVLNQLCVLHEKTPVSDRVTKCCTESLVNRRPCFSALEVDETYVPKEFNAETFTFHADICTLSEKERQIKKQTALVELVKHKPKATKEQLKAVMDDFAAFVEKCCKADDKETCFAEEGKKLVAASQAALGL

With `CN[C@H](CC(C)C)C(=O)N[C@H]1C(=O)N[C@@H](CC(N)=O)C(=O)N[C@H]2C(=O)N[C@H]3C(=O)N[C@H](C(=O)N[C@H](C(=O)O)c4cc(O)cc(O)c4-c4cc3ccc4O)[C@H](O)c3ccc(c(Cl)c3)Oc3cc2cc(c3O[C@@H]2O[C@H](CO)[C@@H](O)[C@H](O)[C@H]2O[C@H]2C[C@](C)(N)[C@H](O)[C@H](C)O2)Oc2ccc(cc2Cl)[C@H]1O` [vancomycin, reference compound], in data set [1], the “Binding to tri-peptide in the presence of HSA (control)” value is recorded as “comparable to those seen in the absence of HSA”. In addition, the “Binding to dipeptide (D-Ala-D-Ala)” value in the data set on dipeptide (D-Ala-D-Ala) was “no evidence of binding”. In the data set on Lys-D-Ala-D-Lactate, the “Binding to Lys-D-Ala-D-Lactate” value is “no evidence of binding”.

With Teicoplanin [reference compound], the results for the “Calculated percent Binding to Human albumin” value at human albumin (antibiotic 1 μM), on human albumin (antibiotic 10 μM) and on human albumin (antibiotic 100 μM) were 98.3%, 98.3% and 98.0%, respectively. The “Binding stoichiometry antibiotic:protein” value at human albumin (binding stoichiometry modeling of ITC data) is listed as 1:1 binding. In addition, the “Calculated percent Binding to Human α-glycoprotein” value with human α-glycoprotein (antibiotic 1 μM) is 9.6%; with human α-glycoprotein (antibiotic 10 μM), 9.1%; with human α-glycoprotein (antibiotic 100 μM), 6.0%. Moreover, in data set [2], the Multimers in solution entry is “does not show multimeric complexes in solution”.

Consider `CN[C@H]1C(=O)N[C@@H]2Cc3ccc(cc3)Oc3cc4cc(c3O[C@@H]3O[C@H](C(=O)O)[C@@H](O)[C@H](O)[C@H]3NC(=O)CCCCCCCCC(C)C)Oc3ccc(cc3Cl)[C@@H](O)[C@@H]3NC(=O)[C@H](NC(=O)[C@@H]4NC(=O)[C@@H](NC2=O)c2cc(cc(O)c2Cl)Oc2cc1ccc2O)c1ccc(O)c(c1)-c1c(O[C@H]2O[C@H](CO)[C@@H](O)[C@H](O)[C@@H]2O)cc(O)cc1[C@@H](C(=O)NCCCN(C)C)NC3=O` [^3H-dalbavancin], for which the “Dose remaining in the carcass” value in the data set “Rat mass balance study” (70 days post dose, mass balance study) is reported as 4.5 % of the dose. The “Plasma t1/2” value in the data set “Rat mass balance study” (rats, single IV 20 mg/kg) is “approximately 1 week”.
